Assay results published in patent publication US8940774B2, “Tris-Quaternary Ammonium Salts and Methods for Modulating Neuronal Nicotinic Acetylcholine Receptors” (University of Kentucky Research Foundation, priority 2005, dated 2015).
Read-outs that look alike come from different tables or passages of the source.

Columns and labels:
[1] = molecular target: T1, Rat Striatal Nicotinic Receptors (Rattus norvegicus, UniProt P09483+P12390); experiment: Inhibition of [3H]Nicotine (NIC) binding assay, rat striatal membranes; conditions: % inhibition at 100 nM concentration of analog, 3 nM [3H]NIC
T1 construct: from tissue; host or cells: rat striatal membranes
T1 sequence (P09483 31-630): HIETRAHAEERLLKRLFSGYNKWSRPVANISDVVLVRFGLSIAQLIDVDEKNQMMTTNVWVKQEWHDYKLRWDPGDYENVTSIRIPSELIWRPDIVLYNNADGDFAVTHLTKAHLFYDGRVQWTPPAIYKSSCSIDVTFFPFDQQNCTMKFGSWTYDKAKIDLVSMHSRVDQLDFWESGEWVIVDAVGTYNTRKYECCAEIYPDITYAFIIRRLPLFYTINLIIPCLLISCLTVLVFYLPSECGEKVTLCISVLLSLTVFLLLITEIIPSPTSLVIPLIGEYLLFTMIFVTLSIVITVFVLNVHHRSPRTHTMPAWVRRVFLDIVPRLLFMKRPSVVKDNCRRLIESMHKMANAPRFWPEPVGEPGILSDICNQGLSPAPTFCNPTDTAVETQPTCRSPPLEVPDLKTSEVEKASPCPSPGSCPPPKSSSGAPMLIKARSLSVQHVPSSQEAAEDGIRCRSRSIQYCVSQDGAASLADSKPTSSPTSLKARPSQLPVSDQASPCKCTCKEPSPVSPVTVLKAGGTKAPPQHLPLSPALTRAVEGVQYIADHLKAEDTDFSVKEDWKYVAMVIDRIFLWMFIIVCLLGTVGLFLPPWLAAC
T1 sequence (P12390 25-500): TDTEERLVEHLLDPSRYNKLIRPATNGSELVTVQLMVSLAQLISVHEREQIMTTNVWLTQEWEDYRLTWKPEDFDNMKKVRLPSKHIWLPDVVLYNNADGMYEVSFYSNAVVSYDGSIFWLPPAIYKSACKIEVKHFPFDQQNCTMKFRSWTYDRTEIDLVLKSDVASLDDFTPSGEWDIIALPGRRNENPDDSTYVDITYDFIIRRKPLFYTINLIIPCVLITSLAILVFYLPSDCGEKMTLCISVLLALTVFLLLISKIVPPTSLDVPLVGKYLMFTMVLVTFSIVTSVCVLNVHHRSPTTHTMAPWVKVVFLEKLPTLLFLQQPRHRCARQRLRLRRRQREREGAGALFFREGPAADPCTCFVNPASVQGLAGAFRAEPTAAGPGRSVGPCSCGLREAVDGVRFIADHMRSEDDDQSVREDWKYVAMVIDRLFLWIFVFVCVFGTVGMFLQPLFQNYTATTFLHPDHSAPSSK
Method: Striata from two rats were dissected, pooled, and homogenized with a Tekmar polytron in 10 vol of ice-cold modified Krebs-HEPES buffer (20 mM HEPES, 118 mM NaCl, 4.8 mM, KCl, 2.5 mM CaCl2, 1.2 mM MgSO4, adjusted to pH 7.5). The homogenates were incubated at 37° C. for 5 minutes and centrifuged at 15,000 g for 20 minutes. The pellet was resuspended in 10 volumes of ice-cold MilliQ water, incubated for 5 minutes at 37° C., and centrifuged at 15,000 g for 20 minutes. The second pellet was then resuspended in 10 volumes of fresh ice-cold 10% Krebs-HEPES buffer, incubated at 37° C., and centrifuged at 15,000 g for 20 minutes. The latter sequence of resuspension, incubation and centrifugation was repeated. The pellet was frozen under fresh 10% Krebs-HEPES buffer and stored at −40° C. until assay. Upon assay, the pellet was resuspended in Krebs-HEPES buffer, incubated at 37° C. for 5 minutes, and centrifuged at 15,000 g for 20 minutes. The final pellet was resuspended in 3.6 mL ice-cold MilliQ water which provided for approximately 200 μg protein per 100 μL aliquot. Competition assays were performed in duplicate in a final volume of 200 μL Krebs-HEPES buffer containing […] Tris buffer (pH 7.5 at 4° C.). Reactions were initiated by addition of 100 μL of membrane suspension to 3 nM [^3H]NIC (50 μL) and one of at least nine concentrations of analog (50 μL). After a 90 minute incubation at 4° C., reactions were terminated by dilution of the samples with 3 mL of ice-cold Krebs-HEPES buffer followed immediately by filtration through Whatman GF/B glass fiber filters (presoaked in 0.5% polyethyleneimine) using a Brandel Cell Harvester. Filters were rinsed three times with 3 mL of ice-cold Krebs-HEPES buffer, transferred to scintillation vials, and 5 mL scintillation cocktail (Research Products international Corp., Mt. Prospect, Ill.) added. Nonspecific binding determined in triplicate was defined as binding in the presence of 10 μM NIC. Binding parameters were determined using the weighted, least squares non-linear regression. The tris-quaternary ammonium salts were evaluated for their ability to displace [^3H]NIC binding from rat striatal membranes.
(§1) Data are % inhibition at 100 nM concentration of analog for at least 1-3 independent experiments. Specific binding in the [^3H]NIC binding assay is calculated at the difference between the total binding of [^3H]NIC and nonspecific binding in the presence of 10 μM cold nicotine. Specific binding for the [^3H]MLA binding assay is calculated as the difference between the total binding of 2.5 nM [^3H]MLA to the receptors alone and its nonspecific binding in the presence of 1 μM cold MLA. Analog-induced inhibition of nicotine-evoked [^3H]DA release is calculated as a percent of that in the absence of analog.

[2] = system: NIC-evoked [3H]DA release from rat striatal slices; experiment: Nicotine-evoked [3H]dopamine release assay, superfused rat striatal slices; type: cell-based; conditions: 100 nM analog superfused 60 minutes prior to NIC (10 μM), percent of that in the absence of analog
Method: Rat striatal slices (500 μm thickness, 6-8 mg wet weight) were incubated for 30 minutes in Krebs buffer (118 mM NaCl, 4.7 mM KCl, 1.2 mM MgCl2, 1.0 mM NaH2PO4, 1.3 mM CaCl2, 11.1 mM glucose, 25 mM NaHCO3, 0.11 mM L-ascorbic acid and 0.004 mM disodium EDTA; pH 7.4, and saturated with 95% O2/5% CO2) in a metabolic shaker at 34° C. Slices were rinsed with 15 mL of fresh buffer and incubated for an additional 30 minutes in fresh buffer containing 0.1 μM [^3H]dopamine (DA; 6 slices/3 mL). Subsequently, slices were rinsed with 15 mL of fresh buffer and transferred to a glass superfusion chamber. Slices were superfused (1.0 mL/min) for 60 minutes with Krebs buffer containing nomifensine (10 μM) and pargyline (10 μM) and maintained at 34° C., pH 7.4 with continual aeration (95% O2/5% CO2). Two five minute samples (5 mL each) were collected to determine basal outflow of [^3H]DA. Analogs were added to the superfusion buffer after the collection of the second sample and remained in the buffer until 12 consecutive five minute samples were collected. Subsequently, S-(−)-nicotine (10 μM) was added to the buffer and an additional 12 consecutive five minute samples were collected. At the end of the experiment, each slice was solubilized and the [^3H] content of the tissue determined.
Radioactivity in the superfusate and tissue samples were determined by liquid scintillation spectroscopy. Fractional release for tritium collected in each sample was divided by the total tritium present at the time of sample collection and was expressed as a percentage of total tritium. Basal [^3H] outflow was calculated from the average of the tritium collected in the two five-minute samples just before addition of the analog. The sum of the increase in collected tritium resulting from either exposure to the test compound or exposure to S-(−)-nicotine in the absence cod presence of the test compound equaled total [^3H] overflow. [^3H] Overflow was calculated by subtracting the [^3H] outflow during an equivalent period of prestimulation from the values in samples collected during and after drug exposure. Inasmuch as the radiolabelled compounds were not separated and identified, the tritium in the superfusate is referred to as either [^3H] outflow or [^3H] overflow, rather than [^3H]DA. [^3H] Overflow primarily represents [^3H]DA in the presence of nomifesine and pargyline in the superfusion buffer. […]
Analogs were also evaluated for their ability to inhibit NIC evoked [^3H]DA release. In these experiments, the striatal slices were superfused for 60 minutes with 100 nM concentration of the analogs prior to NIC (10 μM) exposure. Antagonist activity was evaluated by comparing the NIC-evoked [^3H] overflow in the absence and presence of the analogs. The relative order of potency of the analogs for inhibition of NIC-evoked [^3H]DA release from rat striatal slices is illustrated in Table 1.
as §1

[3] = molecular target: T2, α7-type neuronal nicotinic acetylcholine receptors (Rattus norvegicus, UniProt Q05941); experiment: Inhibition of [3H]Methyllycaconitine (MLA) binding assay, rat brain membranes; conditions: for inhibition at 0.1 µM: read-out: Inhibition of [3H]MLA binding
T2 construct: from tissue; host or cells: rat brain membranes (whole brain without cortex, striatum and cerebellum)
T2 sequence (Q05941 23-502): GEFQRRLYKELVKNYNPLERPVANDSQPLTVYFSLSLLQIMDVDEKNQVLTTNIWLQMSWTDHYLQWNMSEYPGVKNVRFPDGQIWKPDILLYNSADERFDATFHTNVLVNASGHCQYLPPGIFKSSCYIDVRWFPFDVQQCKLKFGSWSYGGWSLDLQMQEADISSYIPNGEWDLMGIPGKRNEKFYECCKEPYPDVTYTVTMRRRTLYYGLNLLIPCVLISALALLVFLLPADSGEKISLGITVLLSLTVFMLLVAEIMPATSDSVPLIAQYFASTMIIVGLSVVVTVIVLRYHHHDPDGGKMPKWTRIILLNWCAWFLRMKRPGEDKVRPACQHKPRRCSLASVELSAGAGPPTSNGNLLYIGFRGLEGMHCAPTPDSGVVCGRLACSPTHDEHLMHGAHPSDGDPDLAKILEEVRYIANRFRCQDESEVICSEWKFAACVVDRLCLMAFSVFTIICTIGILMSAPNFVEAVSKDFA
Method: Rat brain was dissected into the whole brain tissue without cortex, striatum and cerebellum and was frozen in liquid nitrogen and stored at −70° C. until use. The brain tissue was homogenized with a Tekmar Polytron (setting 40) in 20 volumes of ice-cold hypotonic buffer (2 mM HEPES, 14.4 mM NaCl, 0.15 mM KCl, 0.2 mM CaCl2 and 0.1 mM MgSO4, pH=7.5). The homogenate was incubated at 37° C. for 10 minutes and centrifuged at 25,000 g for 15 minutes at […] The pellet was washed 3 times more by resuspension in 20 volumes of the same buffer and centrifugation at the above parameters. The final pellet was stored at −20° C. under 4.6 mL of the incubation buffer and was suspended just before the incubation with radioligand.
The binding of [^3H]MLA to probe α7-type neuronal nicotinic acetylcholine receptors was measured using a modification of the method of Davies at al., “Characterisation of the binding of [^3H]methyllycaconitine (MLA): a radioligand for labelling α7-type neuronal nicotinic acetylcholine receptors,” Neuropharmacology, 38, 679-690 (1999). [^3H]MLA (25.4 Ci/mmol) was purchased from Tocris Cookson Ltd., Bristol, U.K. Binding was performed in duplicate, in a final volume of 250 μL of the incubation medium, containing 20 mM HEPES, 144 mM NaCl, 1.5 mM KCl, 2 mM CaCl2, 1 mM MgSO4 and 0.05% BSA, pH=7.5. Reaction was initiated by the addition of 100 μL of membrane suspension to the samples containing a desired concentration of test compounds and […] [^3H]MLA (final concentration) and incubated for 2 hours it room temperature. Total binding was measured in the absence of unlabelled ligand, and nonspecific binding was determined by the presence of 1 μM unlabelled MLA. The binding reaction was terminated by dilution of samples with 3 mL of ice-cold incubation buffer followed by immediate filtration through glass fiber filters (S&S, grade #32, presoaked in 0.5% polyethylenimine) using a Brandel harvester system. Filters were rinsed three times with 3 mL of ice-cold buffer, transferred to scintillation vials and 4 mL of scintillation cocktail was added. Protein was measured using the Bradford dye-binding procedure with bovine serum albumin as the standard.
The tris-quaternary ammonium salts were evaluated for their ability to displace [^3H]MLA binding from rat brain membranes.
as §1

[4] = % inhibition at 100 nM concentration of analog, rat brain membranes, 2.5 nM [3H]MLA

Cc1ccc[n+](CCCC#Cc2cc(C#CCCC[n+]3cccc(C)c3)cc(C#CCCC[n+]3cccc(C)c3)c2)c1 [GZ550A, 1,3,5-tris-[5-(3-picolinium)-pent-1-ynyl]-benzene tribromide]
inhibition at 0.1 µM [1]: 10 ± 1.9% | inhibition at 0.1 µM [2]: 46% | inhibition at 0.1 µM [3, 4]: 0%

C(#Cc1cc(C#CCCC[n+]2cccc(-c3ccccc3)c2)cc(C#CCCC[n+]2cccc(-c3ccccc3)c2)c1)CCC[n+]1cccc(-c2ccccc2)c1 [GZ550B, 1,3,5-tris-[5-(3-phenyl-pyridinium)-pent-1-ynyl]-benzene tribromide]
inhibition at 0.1 µM [1]: 15 ± 0.9% | inhibition at 0.1 µM [2]: 49% | inhibition at 0.1 µM [3, 4]: 39 ± 2.2%

C(#Cc1cc(C#CCCC[n+]2cccc3ccccc32)cc(C#CCCC[n+]2cccc3ccccc32)c1)CCC[n+]1cccc2ccccc21 [GZ552A, 1,3,5-tris-[5-(1-quinolinium)-pent-1-ynyl]-benzene tribromide]
inhibition at 0.1 µM [1]: 7 ± 3.8% | inhibition at 0.1 µM [2]: 72% | inhibition at 0.1 µM [3, 4]: 21 ± 6%

C(#Cc1cc(C#CCCC[n+]2ccc3ccccc3c2)cc(C#CCCC[n+]2ccc3ccccc3c2)c1)CCC[n+]1ccc2ccccc2c1 [GZ552B, 1,3,5-tris-[5-(2-isoquinolinium)-pent-1-ynyl]-benzene tribromide]
inhibition at 0.1 µM [1]: 9.2 ± 5% | inhibition at 0.1 µM [2]: 49% | inhibition at 0.1 µM [3, 4]: 4.5 ± 2.6%

Cc1cc(C)c[n+](CCCC#Cc2cc(C#CCCC[n+]3cc(C)cc(C)c3)cc(C#CCCC[n+]3cc(C)cc(C)c3)c2)c1 [GZ553A, 1,3,5-tris-[5-(3,5-lutidinium)-pent-1-ynyl]-benzene tribromide]
inhibition at 0.1 µM [1]: 8.9 ± 2.9% | inhibition at 0.1 µM [2]: 31% | inhibition at 0.1 µM [3, 4]: 0%

Cc1cc[n+](CCCC#Cc2cc(C#CCCC[n+]3ccc(C)c(C)c3)cc(C#CCCC[n+]3ccc(C)c(C)c3)c2)cc1C [GZ553B, 1,3,5-tris-[5-(3,4-lutidinium)-pent-1-ynyl]-benzene tribromide]
inhibition at 0.1 µM [1]: 4 ± 1.4% | inhibition at 0.1 µM [2]: 0% | inhibition at 0.1 µM [3, 4]: 1.8 ± 1.8%

Cc1cccc[n+]1CCCC#Cc1cc(C#CCCC[n+]2ccccc2C)cc(C#CCCC[n+]2ccccc2C)c1 [GZ554A, 1,3,5-tris-[5-(2-picolinium)-pent-1-ynyl]-benzene tribromide]
inhibition at 0.1 µM [1]: 4.5 ± 2% | inhibition at 0.1 µM [2]: 68% | inhibition at 0.1 µM [3, 4]: 0%

Cc1cc[n+](CCCC#Cc2cc(C#CCCC[n+]3ccc(C)cc3)cc(C#CCCC[n+]3ccc(C)cc3)c2)cc1 [GZ554B, 1,3,5-tris-[5-(4-picolinium)-pent-1-ynyl]-benzene tribromide]
inhibition at 0.1 µM [1]: 21 ± 4.5% | inhibition at 0.1 µM [2]: 34% | inhibition at 0.1 µM [3, 4]: 0%

Cc1ccc[n+](CCCCCc2cc(CCCCC[n+]3cccc(C)c3)cc(CCCCC[n+]3cccc(C)c3)c2)c1 [GZ555A, 1,3,5-tris-[5-(3-picolinium)-pentyl]-benzene tribromide]
inhibition at 0.1 µM [1]: 14 ± 6.1% | inhibition at 0.1 µM [2]: 42% | inhibition at 0.1 µM [3, 4]: 1.2 ± 1.2%

Cc1cccc[n+]1CCCCCc1cc(CCCCC[n+]2ccccc2C)cc(CCCCC[n+]2ccccc2C)c1 [GZ555B, 1,3,5-tris-[5-(2-picolinium)-pentyl]-benzene tribromide]
inhibition at 0.1 µM [1]: 8.6 ± 7.2% | inhibition at 0.1 µM [2]: 25% | inhibition at 0.1 µM [3, 4]: 0%

Cc1cc[n+](CCCCCc2cc(CCCCC[n+]3ccc(C)cc3)cc(CCCCC[n+]3ccc(C)cc3)c2)cc1 [GZ555C, 1,3,5-tris-[5-(4-picolinium)-pentyl]-benzene tribromide]
inhibition at 0.1 µM [1]: 6 ± 3.4% | inhibition at 0.1 µM [2]: 37 ± 17% | inhibition at 0.1 µM [3, 4]: 0%

c1ccc2c(c1)ccc[n+]2CCCCCc1cc(CCCCC[n+]2cccc3ccccc32)cc(CCCCC[n+]2cccc3ccccc32)c1 [GZ556A, 1,3,5-tris-[5-(1-quinolinium)-pentyl]-benzene tribromide]
inhibition at 0.1 µM [1]: 5.7 ± 5.7% | inhibition at 0.1 µM [2]: 8 ± 6.4% | inhibition at 0.1 µM [3]: 6.8 ± 0.9%

c1ccc2c[n+](CCCCCc3cc(CCCCC[n+]4ccc5ccccc5c4)cc(CCCCC[n+]4ccc5ccccc5c4)c3)ccc2c1 [GZ556B, 1,3,5-tris-[5-(2-isoquinolinium)-pentyl]-benzene tribromide]
inhibition at 0.1 µM [1]: 8.4 ± 7.6% | inhibition at 0.1 µM [2]: 28 ± 11% | inhibition at 0.1 µM [3, 4]: 2.5 ± 1.5%

α-bungarotoxin [reference compound]
Ki ([3]; read-out: K1 value, displacement of [3H]MLA binding): 0.0286 ± 0.0054 µM
